Measurements from ChEMBL document CHEMBL6127052, “Discovery of membrane-targeting amphiphilic honokiol derivatives containing an oxazolethione moiety to combat methicillin-resistant Staphylococcus aureus (MRSA) infections” (Eur J Med Chem, 2024).
Activity calls are given as the source filed them. The rule behind the calls is not given here.

How the values were obtained:
[1] = Toxicity in KM mouse infected with methicillin-resistant Staphylococcus aureus clinical isolate M12 assessed as histopathological abnormality in liver at 5 mg/kg, sc measured after 24 hrs by H and E staining based analysis; assay type: organism-based; conditions: in vivo
Staphylococcus aureus [2] = experiment: (§1) Antibacterial activity against methicillin-resistant Staphylococcus aureus clinical isolate M12 infected in sepsis BALB/c mouse model assessed as decrease in necrosis in hepatocytes at 12 mg/kg, ip administered consecutively at 12 hr-interval for 24 hrs measured after 24 hrs post-last dose by H and E staining based analysis; assay type: functional, organism-based; conditions: time 48.0 hrs
Staphylococcus aureus [3] = experiment: as §1, with “pathological change” for “necrosis”, “red medulla of spleen” for “hepatocytes”; assay type: functional, organism-based; conditions: time 48.0 hrs
Staphylococcus aureus [4] = experiment: Antibacterial activity against methicillin-resistant Staphylococcus aureus clinical isolate M12 infected in KM mouse assessed as reduction in IL-6 level at infection site at 5 mg/kg, sc measured after 24 hrs by ELISA; assay type: functional
Staphylococcus aureus [5] = experiment: as §1, with “degeneration of renal tubular epithelial cells” for “necrosis in hepatocytes”; assay type: functional, organism-based; conditions: time 48.0 hrs
Staphylococcus aureus [6] = experiment: Antibacterial activity against methicillin-resistant Staphylococcus aureus clinical isolate M12 infected in sepsis BALB/c mouse model assessed as decrease in bacterial load in spleen at 12 mg/kg, ip administered consecutively at 12 hr-interval for 24 hrs measured after 24 hrs post-last dose; assay type: functional; conditions: time 48 hrs
Staphylococcus aureus [7] = experiment: Antibacterial activity against methicillin-resistant Staphylococcus aureus clinical isolate M12 infected in KM mouse assessed as decrease in erythematous pustules at infected skin on back of animal at 5 mg/kg, sc measured after 24 hrs; assay type: functional, organism-based
[8] = Toxicity in KM mouse infected with methicillin-resistant Staphylococcus aureus clinical isolate M12 assessed as histopathological abnormality in kidney at 5 mg/kg, sc measured after 24 hrs by H and E staining based analysis; assay type: organism-based; conditions: in vivo
[9] = Toxicity in KM mouse infected with methicillin-resistant Staphylococcus aureus clinical isolate M12 assessed as histopathological abnormality in spleen at 5 mg/kg, sc measured after 24 hrs by H and E staining based analysis; assay type: organism-based; conditions: in vivo
Staphylococcus aureus [10] = experiment: Antibacterial activity against methicillin-resistant Staphylococcus aureus clinical isolate M12 infected in KM mouse assessed as decrease in bacterial survival rate at 5 mg/kg, sc measured after 24 hrs by drop-plate counting method relative to control; assay type: functional
Staphylococcus aureus [11] = experiment: as §1, with “pathological change” for “necrosis”, “white medulla of spleen” for “hepatocytes”; assay type: functional, organism-based; conditions: time 48.0 hrs
Staphylococcus aureus [12] = experiment: Antibacterial activity against methicillin-resistant Staphylococcus aureus clinical isolate M12 infected in sepsis BALB/c mouse model assessed as decrease in bacterial load in liver at 12 mg/kg, ip administered consecutively at 12 hr-interval for 24 hrs measured after 24 hrs post-last dose; assay type: functional; conditions: time 48 hrs
[13] = Toxicity in KM mouse infected with methicillin-resistant Staphylococcus aureus clinical isolate M12 assessed as damage in lung at 5 mg/kg, sc measured after 24 hrs by H and E staining based analysis; assay type: organism-based; conditions: in vivo
[14] = Toxicity in sepsis BALB/c mouse model infected with methicillin-resistant Staphylococcus aureus clinical isolate M12 assessed as survival rate at 12 mg/kg, ip administered consecutively at 12 hr-interval for 7 days measured after 24 hrs post-last dose; assay type: organism-based; conditions: in vivo, 192 h, time 8 day
[15] = Toxicity in KM mouse infected with methicillin-resistant Staphylococcus aureus clinical isolate M12 assessed as histopathological abnormality in heart at 5 mg/kg, sc measured after 24 hrs by H and E staining based analysis; assay type: organism-based; conditions: in vivo
Staphylococcus aureus [16] = experiment: Antibacterial activity against methicillin-resistant Staphylococcus aureus clinical isolate M12 infected in KM mouse assessed as decrease in erythematous pustules in intradermal tissues at 5 mg/kg, sc measured after 24 hrs; assay type: functional, organism-based
Staphylococcus aureus [17] = experiment: as §1, with “degeneration of” for “necrosis in”; assay type: functional, organism-based; conditions: time 48.0 hrs
Staphylococcus aureus [18] = experiment: as §1, with “renal tubular epithelial cells” for “hepatocytes”; assay type: functional, organism-based; conditions: time 48.0 hrs
[19] = Toxicity in KM mouse infected with methicillin-resistant Staphylococcus aureus clinical isolate M12 assessed as damage in spleen at 5 mg/kg, sc measured after 24 hrs by H and E staining based analysis; assay type: organism-based; conditions: in vivo
Staphylococcus aureus [20] = experiment: Antibacterial activity against methicillin-resistant Staphylococcus aureus clinical isolate M12 infected in KM mouse assessed as reduction in TNF-alpha level at infection site at 5 mg/kg, sc measured after 24 hrs by ELISA; assay type: functional
[21] = Toxicity in KM mouse infected with methicillin-resistant Staphylococcus aureus clinical isolate M12 assessed as histopathological abnormality in lung at 5 mg/kg, sc measured after 24 hrs by H and E staining based analysis; assay type: organism-based; conditions: in vivo
Staphylococcus aureus [22] = experiment: Antibacterial activity against methicillin-resistant Staphylococcus aureus clinical isolate M12 infected in KM mouse assessed as decrease in bacterial load in skin tissues at 5 mg/kg, sc measured after 24 hrs by drop-plate counting method (reference value: 6.7); assay type: functional
[23] = Toxicity in KM mouse infected with methicillin-resistant Staphylococcus aureus clinical isolate M12 assessed as damage in heart at 5 mg/kg, sc measured after 24 hrs by H and E staining based analysis; assay type: organism-based; conditions: in vivo
[24] = Toxicity in KM mouse infected with methicillin-resistant Staphylococcus aureus clinical isolate M12 assessed as damage in liver at 5 mg/kg, sc measured after 24 hrs by H and E staining based analysis; assay type: organism-based; conditions: in vivo
[25] = Toxicity in KM mouse infected with methicillin-resistant Staphylococcus aureus clinical isolate M12 assessed as damage in kidney at 5 mg/kg, sc measured after 24 hrs by H and E staining based analysis; assay type: organism-based; conditions: in vivo
Staphylococcus aureus [26] = experiment: Antibacterial activity against methicillin-resistant Staphylococcus aureus clinical isolate M12 infected in sepsis BALB/c mouse model assessed as decrease in bacterial load in kidney at 12 mg/kg, ip administered consecutively at 12 hr-interval for 24 hrs measured after 24 hrs post-last dose; assay type: functional; conditions: time 48 hrs

Compound: CN[C@H](CC(C)C)C(=O)N[C@H]1C(=O)N[C@@H](CC(N)=O)C(=O)N[C@H]2C(=O)N[C@H]3C(=O)N[C@H](C(=O)N[C@H](C(=O)O)c4cc(O)cc(O)c4-c4cc3ccc4O)[C@H](O)c3ccc(c(Cl)c3)Oc3cc2cc(c3O[C@@H]2O[C@H](CO)[C@@H](O)[C@H](O)[C@H]2O[C@H]2C[C@](C)(N)[C@H](O)[C@H](C)O2)Oc2ccc(cc2Cl)[C@H]1O [VANCOMYCIN]
- Activity [1]: Non-Toxic
- Activity (Staphylococcus aureus [2]): Active
- Activity (Staphylococcus aureus [3]): Active
- Activity (Staphylococcus aureus [4]): 56.5 pg/mL
- Activity (Staphylococcus aureus [5]): Active
- Activity (Staphylococcus aureus [6]): 1.57 log10CFU/g
- Activity (Staphylococcus aureus [7]): inactive
- Activity [8]: Non-Toxic
- Activity [9]: Non-Toxic
- Activity (Staphylococcus aureus [10]): 93.33%
- Activity (Staphylococcus aureus [11]): Active
- Activity (Staphylococcus aureus [12]): 1.62 log10CFU/g
- Activity [13]: Non-Toxic
- Survival [14]: 50%
- Activity [15]: Non-Toxic
- Activity (Staphylococcus aureus [16]): inactive
- Activity (Staphylococcus aureus [17]): Active
- Activity (Staphylococcus aureus [18]): Active
- Activity [19]: Non-Toxic
- Activity (Staphylococcus aureus [20]): 96.3 pg/mL
- Activity [21]: Non-Toxic
- Activity (Staphylococcus aureus [22]): 1.4 log10CFU/g
- Activity [23]: Non-Toxic
- Activity [24]: Non-Toxic
- Activity [25]: Non-Toxic
- Activity (Staphylococcus aureus [26]): 1.48 log10CFU/g
